Data from patent publication US6696081B2, “Carbohydrate based lipid compositions and supramolecular structures comprising same” (Duke University, priority 2000, dated 2004).
Where “and” joins values, the source holds several entries; their conditions need not be identical. Identical values can stand only once. Like-named read-outs stand apart in the source and are kept apart here. Each block holds one compound with its values, some of them ahead of it.

What was measured:
[1] = Modulated differential scanning calorimetry (MDSC) of hydrated lipid bilayers; type: physicochemical; conditions: for increase of Tm over the glycerol analog: DLRPC vs DLPC, DMRPC vs DMPC; for enthalpy of transition / phase-transition temperature (Tm) of the bilayer: lipid hydrated in water, MDSC
Experimental: The phase-transition temperatures (Tm) of the bilayers formed by DLRPC, DMRPC and DARPC were determined by modulated differential scanning calorimetry (MDSC). […] For DARPC, the similarity in Tm was not entirely unexpected since tail—tail interactions contribute more to the Tm as the tail length increases. […] At the phase-transition temperature, the bilayer transformed from the gel-liquid crystalline phase in glycerol based phospholipids such as DLPC and DMPC. This endothermic process was observed as two discreet events. A small pre-transition peak, corresponding to the conversion from a lamellar gel (Lβ) phase to rippled gel (Pβ) phase, occurred below a much larger sharp main transition peak corresponding to conversion of the Pβ phase to the liquid crystalline Lα phase. The temperature at which the pre-transition existed as well as the enthalpy of the transition both changed as a function of tail length in a linear pattern. This presence of two well-defined phase transitions was not observed for the carbohydrate-based lipids.
Thermal Analysis of DLRPC 1-2 mgs of lipid were hermetically sealed with […] water in an aluminum pan. The modulation was set to ±1.00° C. every 40 seconds and the pan was equilibrated at −15° C. The temperature was increased at 0.5° C./min to 70° C. where the temperature was held for 2 minutes. The temperature was then reduced to −10° C. and held at this temperature for 2 minutes. This heating-cooling cycle was repeated two more times before the sample was held isothermal at −10° C. for 20 minutes. Integrating under the heat flow peak curve of the main peak provides the enthalpy of the transition. TA Instruments Universal Analysis computer program (available from TA Instruments of New Castle, Del., United States of America) was used to analyze the data. DLRPC has a Tm of 15.75° C. and an enthalpy of 3.3 kcal/mol.
The same modulated differential scanning calorimetry method used on DLRPC was employed to obtain thermotropic data on DMRPC.
The same modulated differential scanning calorimetry method used on DLRPC was employed to obtain thermotropic data on DARPC.

PLA2 (naja naja venom) = experiment: pH-stat phospholipase assay; type: biochemical; conditions: for initial average rate of hydrolysis by PLA2: lipid as substrate, Triton X-100 40 mM, CaCl2 10 mM, 40° C., pH 8.0, PLA2 0.1 units/mL
Experimental: The pH-stat phospholipase assays were performed on a Metrohm 718 STAT Titrino pH-stat following a procedure described by Yuan et al. (Yuan, W.; Berman, R. J.; Gelb, M. H. J. Am. Chem. Soc. 1987, 109, 8071-8081; Deems, R. A.; Dennis, E. A. Methods Enzym 1981, 71, 703-710.) Before the assays were performed, the pH-stat was calibrated at pH 7 and pH 4. The NaOH (0.01 N) titrant was standardized by titration to pH 8.65 with a weighed amount of potassium hydrogen-phthalate in 40 mL of Dl water. The lipid was transferred to a 5 mL round bottom flask in methylene chloride/methanol (98/2) and the solvent was removed by rotoevaporation. High vacuum then removed trace amounts of remaining solvent. The lipid film was rehydrated with 2 mL of an aqueous solution containing TRITON X-100™ detergent (Sigma Chemical Company, St. Louis, Mo.) (40 mM) and CaCl2 (10 mM) and then sonicated briefly to solubilize the lipids.
Next, the solution was immersed in a temperature-controlled bath at 40° C. and stirred with a magnetic stir bar. A stream of argon was passed over the reaction mixture to prevent CO2 absorption. A microelectrode (Metrohm 6.0224.100 pH 1-11/0-60° C. Idrolyte) was inserted through the top of the reaction vessel along with the dosing tube from the pH-stat. The reaction mixture was adjusted to a pH of 8.2 by addition of NaOH. Next, 0.2 units of PLA2 (naja naja venom, Sigma Chemical Company, St. Louis, Mo.) (0.1 units/mL) was added to the reaction and the reaction started. The pH was allowed to drop to 8.0 and held at this value by addition of NaOH. At pH 8, the fatty acids were almost completely ionized; therefore, the amount of base added as a function of time indicates cleavage of the ester bond.
In this Example, enzymatic activity was recorded using a pH-stat, which maintains a specific pH by adding base during the enzymatic reaction. During these assays, DMPC was hydrolyzed with an initial average rate of 6.19 E-08 (moles NaOH/minute) (std dev 6.72E-10).
Next, whether DMRPC inhibits PLA2 activity was investigated. Using DMPC (5 mM) as a substrate, DMRPC was added to the reaction mixture at varying concentrations. […] With a change in structure, different carbohydrate-based phospholipids could inhibit PLA2.

[2] = Cholesterol interactions: MDSC of lipid/cholesterol mixtures; type: physicochemical
Experimental: The enthalpy was zero at 50 mol % cholesterol for DMRPC. For the glycerol-based phospholipid, cholesterol packed in the bilayer membrane with its hydroxyl group at the same level as the acyl groups. In this structural arrangement, cholesterol primarily interacted with the tails and not the head group or backbone.
For DMRPC, a slight decrease in phase-transition temperature was observed. The phase-transition temperature decreased from ˜30° C. at 0 mol % cholesterol to ˜27° C. at 35 mol % cholesterol. […] The carbohydrate backbone of DMRPC likely altered the effective hydrophobic length of the bilayer area (this DMRPC is similar to longer tail systems). There was a slight destabilization of the bilayer membrane with the incorporation of cholesterol as indicated by the decrease in phase-transition temperature. […] X-ray data on 20 mol % cholesterol/DMRPC confirmed the Lc state.

[3] = Carboxyfluorescein leakage assay of carbohydrosomes; type: physicochemical
Excerpt: The following procedure is adapted from Weinstein et al. (Weinstein, et al., Self-Quenching of Carboxyfluorescein Fluorescence: Uses in Studying Liposome Stability and Liposome-Cell Interaction; Weinstein, J. N.; et al., Ed.; CRC Press, Inc.: Boca Raton, Fla., United States of Amenica 1984; Vol. 3, pp 183-204.) and was successfully used in DMPC control experiments. Immediately before use, the carbohydrate-based lipid DMRPC, was passed through a C-18 SEP PAK™ column using a solvent system of 10% MeOH/CH3CN. Both the cholesterol and DMRPC were dissolved in chloroform and mixed. The mixtures were dried by rotoevaporation in a 100 mL round bottom flask before being thoroughly dried by high vacuum. […] The size of the liposomes was determined using dynamic light scattering. […] The filtered liposomes were diluted into osmotically equivalent 20 mM PBS buffer at pH 7.4 and the fluorescence intensity was measured over time. […]
As discussed herein above, one of the most wide-spread uses of liposomes is as drug delivery vehicles in warm-blooded vertebrates, including humans. […] In this Example, release of the self-quenching dye 5(6)-carboxyfluorescein (encapsulated in 5 mg/mL) was monitored over time by preparing carboxyfluorescein-containing carbohydrosomes using the high-pressure extrusion method. […]

[4] = literature value, Marsh, CRC Handbook of Lipid Bilayers; cited from earlier work
[5] = glycerol analog, Van Dijck et al.; cited from earlier work
[6] = MDSC thermal analysis of DLRPA as a function of pH; type: physicochemical
Excerpt: The same modulated differential scanning calorimetry method used on DLRPC was employed to obtain thermotropic data on DLRPA. Instead of using water to hydrate the samples however, the following 5 buffers were utilized: a) 0.1 M KCl/HCl at pH 1.5, b) 0.1 M KCl/HCl at pH 4.14, c) 0.1 M Tris-HCl at pH 7.4, d) 0.01 M sodium borate at pH 8.44, and e) 0.01 M sodium borate at pH 9.5.
The effect of pH on the phase-transition temperature of DLRPA supramolecular structures was probed using modulated differential scanning calorimetry. Experiments were performed in the following 5 solutions: a) 0.1 M KCl/HCl at pH 1.5, b) 0.1 M KCl/HCl at pH 4.14, c) 0.1 M Tris-HCl at pH 7.4, d) 0.01 M sodium borate at pH 8.44, and e) 0.01 M sodium borate at pH 9.5.

[7] = 40 mol % cholesterol; McMullen et al.; cited from earlier work

Compound: methyl-2,3-di-O-myristoyl-b-D-ribo-5-phosphocholine [DMRPC]
- increase of Tm over the glycerol analog [1]: approximately 6 °C
- enthalpy of transition [1]: 6.1 ± 1.0 kcal/mol and 6.1 kcal/mol
- phase-transition temperature (Tm) of the bilayer [1]: 29.6±0.3 °C and 29 °C and 29.6 °C
- hydrolysis rate of DMPC with DMRPC added (PLA2 (naja naja venom); DMPC (5 mM) as substrate, DMRPC added to the reaction mixture): 6.32E-08 (std. dev. 1.36E-08) moles NaOH/minute
- inhibition of PLA2 activity (PLA2 (naja naja venom); DMPC (5 mM) as substrate, as much as 4 mM DMRPC added): did not yield a significant hydrolysis rate decrease
- initial average rate of hydrolysis by PLA2 (PLA2 (naja naja venom)): not hydrolyzed
- phase-transition temperature ([2]; 0 mol % cholesterol): ~30 °C
- phase-transition temperature ([2]; 35 mol % cholesterol): ~27 °C
- enthalpy of transition ([2]; 50 mol % cholesterol): zero
- vesicle survival of SEPHADEX G-50 column separation ([3]; vesicles of 100% DMRPC (0% cholesterol)): too fragile to survive

- enthalpy of transition [1]: 12.6 ± 0.7 kcal/mol
- phase-transition temperature (Tm) of the bilayer [1]: 66 °C
Compound: CCCCCCCCCCCCCCCCCCCC(=O)OC[C@H](COP(=O)([O-])OCC[N+](C)(C)C)OC(=O)CCCCCCCCCCCCCCCCCCC [DAPC, reference compound]
- enthalpy of transition (literature) [4]: 11.93 kcal/mol

Compound: CCCCCCCCCCCC(=O)OC[C@H](COP(=O)(O)O)OC(=O)CCCCCCCCCCC [DLPA, dilauroyl phosphatidic acid]
- pH at which the first proton of the phosphate is lost [5]: 3-4
- pH at which the second proton of the phosphate is lost [5]: ~7

- increase of Tm over the glycerol analog [1]: 16 °C
- enthalpy of transition [1]: 3.3 ± 0.3 kcal/mol and 3.3 kcal/mol
- phase-transition temperature (Tm) of the bilayer [1]: 15.75±0.05 °C and 15.75 °C
Compound: CCCCCCCCCCCC(=O)O[C@H]1[C@H](OC)O[C@H](COP(=O)([O-])OCC[N+](C)(C)C)[C@H]1OC(=O)CCCCCCCCCCC [DLRPC, Methyl-2,3-di-O-lauroyl-b-D-ribo-5-phosphocholine]

Compound: CCCCCCCCCCCC(=O)OC[C@H](COP(=O)([O-])OCC[N+](C)(C)C)OC(=O)CCCCCCCCCCC [DLPC, 1,2-dilauroyl-sn-glycero-3-phosphocholine, reference compound]
- enthalpy of transition [1]: 1.5 kcal/mol
- phase-transition temperature (Tm) of the bilayer [1]: −1.1±0.8 °C

Compound: bis-(2,3-lauroyl)-1-methoxy-5-ribo-phosphatidic acid [DLRPA]
- pH at which the first proton of the phosphate is lost ([6]; from Tm versus pH profile): 3-4
- pH at which the second proton of the phosphate is lost ([6]; from Tm versus pH profile): ~8.5
- Tm ([6]; pH 1.5, 0.1 M KCl/HCl): ~45 °C
- Tm ([6]; pH 4.14, 0.1 M KCl/HCl): 34 °C
- Tm ([6]; pH 7.4, 0.1 M Tris-HCl): 31 °C
- Tm ([6]; pH 8.4, 0.01 M sodium borate): 29 °C
- Tm ([6]; pH 9.5, 0.01 M sodium borate): ~18 °C

Compound: methyl-2,3-di-O-arachadonyl-b-D-ribo-5-phosphocholine [DARPC]
- enthalpy of transition [1]: 5.1 ± 1.5 kcal/mol and 5.1 kcal/mol
- phase-transition temperature (Tm) of the bilayer [1]: 63.5±0.6 °C and 63.5 °C

Compound: CCCCCCCCCCCCCC(=O)OC[C@H](COP(=O)([O-])OCC[N+](C)(C)C)OC(=O)CCCCCCCCCCCCC [DMPC, reference compound]
- enthalpy of transition [1]: 5.6 ± 1.1 kcal/mol
- phase-transition temperature (Tm) of the bilayer [1]: 23.5 °C
- initial average rate of hydrolysis by PLA2 (PLA2 (naja naja venom)): 6.19 E-08 moles NaOH/minute and 6.19 E-08 (std. dev. 6.72E-10) moles NaOH/minute
- enthalpy of transition (literature) [4]: 5.9 ± 0.6 kcal/mol
- release of carboxyfluorescein in the first 20 minutes ([3]; vesicles in 20 mM PBS pH 7.4): release dye over the first 20 minutes
- increase in phase-transition temperature [7]: ≤ 17 °C
